According to article PMC5661649, “G-protein-coupled receptors mediate 14-3-3 signal transduction” (Signal Transduction and Targeted Therapy, 2016):
Read-outs that look alike come from different tables or passages of the source.

Experiments:
α1AR/14-3-3 interaction = assay: Kinase inhibitor response in α1AR/14-3-3ε LinkLight cells; type: cell-based, human; conditions: preincubation of α1AR/14-3-3 cells; Figure 3c
[1] = biological target: T1, muscarinic cholinergic receptor 5 (CHRM5) (Homo sapiens, UniProt P08912); assay: CHRM5/14-3-3ε LinkLight assay, antagonist mode; type: cell-based; conditions: preincubation with antagonist, then 3 μM carbachol; Figure 2f
T1 construct: Full-length complementary DNAs of human GPCRs without stop codons were subcloned in frame with the tobacco etch virus (TEV) protease vector; expressed in transfected cells
T1 sequence (P08912 1-532): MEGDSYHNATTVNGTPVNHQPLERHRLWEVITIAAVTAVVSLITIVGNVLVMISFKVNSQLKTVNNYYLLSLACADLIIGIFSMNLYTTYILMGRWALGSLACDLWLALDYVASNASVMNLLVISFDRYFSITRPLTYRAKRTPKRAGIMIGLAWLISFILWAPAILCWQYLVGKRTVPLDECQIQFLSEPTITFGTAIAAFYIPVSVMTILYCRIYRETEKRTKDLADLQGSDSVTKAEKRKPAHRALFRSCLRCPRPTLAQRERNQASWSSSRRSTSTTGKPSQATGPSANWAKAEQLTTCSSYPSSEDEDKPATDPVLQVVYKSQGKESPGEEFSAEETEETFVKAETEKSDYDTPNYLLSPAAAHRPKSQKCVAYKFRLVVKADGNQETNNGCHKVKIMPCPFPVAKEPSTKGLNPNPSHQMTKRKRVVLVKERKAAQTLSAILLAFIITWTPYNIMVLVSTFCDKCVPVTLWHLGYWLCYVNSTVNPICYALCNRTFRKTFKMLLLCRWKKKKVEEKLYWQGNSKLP
Source text: (§1) Full-length complementary DNAs of human GPCRs without stop codons were subcloned in frame with the tobacco etch virus (TEV) protease vector as previously described.[20],[21] The β-arrestin-2-permuted luciferase (β-arr-2-pLuc) expression plasmid was also previously described.[20],[21] 14-3-3ɛ and 14-3-3ζ full-length complementary DNAs without stop codons were used to replace β-arrestin-2 in the β-arr-2-pLuc for construction of the 14-3-3ɛ-pLuc and 14-3-3ζ-pLuc expression plasmids. […] Multiple stable clones were selected for evaluation.
(§2) The LinkLight cells stably expressing both GPCR-TEV and 14-3-3ε-pLuc were seeded into a 384-well white plate (Becton Dickinson, Franklin Lakes, NJ, USA) at 20 000 cells per well with 30 μl of regular medium. Cells were cultured overnight. The following day, the culture medium was replaced with 15 μl of serum-free DMEM, followed by the addition of 5 μl of compounds/drugs. Agonists were added as serial dilutions in serum-free DMEM from 10 mM dimethylsulfoxide stocks. For antagonist inhibition assays, the medium was replaced with 10 μl of serum-free DMEM. […] The luminescence signals were determined using a luminescence plate reader (EnSpire or TopCount). Alternatively, after compound incubation, the culture medium was replaced with 10 μl of luciferase detection reagent, and luminescence signals were recorded. […]

[2] = biological target: T2, Alpha adrenergic receptor 1A (α1AR) (Homo sapiens, UniProt P35348); assay: α1AR/14-3-3ε LinkLight assay (agonist-induced GPCR-mediated 14-3-3 signaling); type: cell-based
T2 construct: Full-length complementary DNAs of human GPCRs without stop codons were subcloned in frame with the tobacco etch virus (TEV) protease vector; expressed in transfected cells
T2 sequence (P35348 1-466): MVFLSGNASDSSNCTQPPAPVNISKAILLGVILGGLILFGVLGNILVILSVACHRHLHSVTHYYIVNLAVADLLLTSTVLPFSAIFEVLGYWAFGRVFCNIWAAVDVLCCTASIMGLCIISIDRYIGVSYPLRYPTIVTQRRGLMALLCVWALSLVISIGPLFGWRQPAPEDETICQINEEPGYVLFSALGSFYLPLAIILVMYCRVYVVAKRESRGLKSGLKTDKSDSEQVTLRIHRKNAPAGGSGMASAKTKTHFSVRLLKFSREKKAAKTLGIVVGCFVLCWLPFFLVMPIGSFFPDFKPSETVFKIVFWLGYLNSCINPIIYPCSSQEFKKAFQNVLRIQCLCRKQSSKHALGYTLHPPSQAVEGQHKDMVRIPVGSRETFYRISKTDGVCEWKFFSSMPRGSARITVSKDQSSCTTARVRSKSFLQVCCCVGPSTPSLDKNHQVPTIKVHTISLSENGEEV
Experimental: (§3) Multiple stable clones were selected for evaluation.
(§4) Cells were cultured overnight.

[3] = biological target: T3, α1AR (β-arrestin signaling) (Homo sapiens, UniProt P35348); assay: α1AR/β-arrestin-2 LinkLight assay; type: cell-based; conditions: α1A-TEV/β-arrestin-pLuc cells, Figure 3f; for EC50: adrenergic agonist panel, read-out: potency (rank order) in β-arrestin signaling
T3 construct: Full-length complementary DNAs of human GPCRs without stop codons were subcloned in frame with the tobacco etch virus (TEV) protease vector; expressed in transfected cells
T3 sequence (P35348 1-466): T2 sequence (P35348 1-466)
Experimental: as §3, §4
The GPCR/β-arrestin-2 LinkLight cells were seeded in white 384-well plates.

[4] = biological target: T4, β3 adrenergic receptor (ADRB3) (Homo sapiens, UniProt P13945); assay: ADRB3/14-3-3 LinkLight assay; type: cell-based; conditions: HEK293 stably expressing ADRB3-TEV and 14-3-3-pLuc; Figure 3d
T4 construct: Full-length complementary DNAs of human GPCRs without stop codons were subcloned in frame with the tobacco etch virus (TEV) protease vector; expressed in transfected cells
Experimental: as §3, §4

[5] = biological target: T1, muscarinic cholinergic receptor 5 (CHRM5); assay: CHRM5/14-3-3ε LinkLight assay, agonist mode; type: cell-based; conditions: stable CHRM5/14-3-3 LinkLight cells; Figure 2e
Source text: as §1, §2

[6] = test system: Raf-1/14-3-3ε interaction; assay: GPCR agonist-induced Raf-1/14-3-3ε interaction LinkLight assay in U2OS cells; type: cell-based; conditions: U2OS stably co-expressing Raf-1-TEV and 14-3-3ε-pLuc, endogenous GPCRs; Figure 4a
Source text: as §1
The LinkLight cells stably expressing both GPCR-TEV and 14-3-3ε-pLuc were seeded into a 384-well white plate (Becton Dickinson, Franklin Lakes, NJ, USA) at 20 000 cells per well with 30 μl of regular medium. Cells were cultured overnight. The following day, the culture medium was replaced with 15 μl of serum-free DMEM, followed by the addition of 5 μl of compounds/drugs. Agonists were added as serial dilutions in serum-free DMEM from 10 mM dimethylsulfoxide stocks. For antagonist inhibition assays, the medium was replaced with 10 μl of serum-free DMEM. […] An equal volume of Bright-Glo (Promega, Madison, WI, USA), One-Glo (Promega), BriteLite (PerkinElmer, Billerica, MA, USA) or NeoLite (PerkinElmer) luciferase detection reagent was added for a 5-min incubation. The luminescence signals were determined using a luminescence plate reader (EnSpire or TopCount). Alternatively, after compound incubation, the culture medium was replaced with 10 μl of luciferase detection reagent, and luminescence signals were recorded.
The Raf-1/14-3-3ε LinkLight cells were seeded in white 384-well plates.

Raf-1/14-3-3 interaction = assay: Kinase inhibition of FBS-stimulated Raf-1/14-3-3 interaction in U2OS cells; type: cell-based; conditions: 7.5% FBS stimulation, Figure 4d
Experimental: as §4
The LinkLight cells were cultured in a white 384-well plate overnight. The culture medium was then replaced with serum-free DMEM.

[7] = α1A-TEV/14-3-3ε-pLuc cells, adrenergic agonist panel, Figure 3e, read-out: potency (rank order) in the 14-3-3 signaling assay

T4 sequence (P13945 whole entry): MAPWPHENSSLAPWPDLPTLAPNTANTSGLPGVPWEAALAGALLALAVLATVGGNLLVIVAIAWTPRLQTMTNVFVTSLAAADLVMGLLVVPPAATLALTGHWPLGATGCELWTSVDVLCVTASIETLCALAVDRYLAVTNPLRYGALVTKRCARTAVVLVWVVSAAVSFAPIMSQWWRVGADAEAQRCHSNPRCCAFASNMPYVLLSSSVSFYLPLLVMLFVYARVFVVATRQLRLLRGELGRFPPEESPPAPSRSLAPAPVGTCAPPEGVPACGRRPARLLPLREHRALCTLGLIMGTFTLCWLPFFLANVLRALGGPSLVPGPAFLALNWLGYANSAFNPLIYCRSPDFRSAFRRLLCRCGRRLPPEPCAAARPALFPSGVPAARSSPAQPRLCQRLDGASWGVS

## O=S(=O)(NCCNC/C=C/c1ccc(Br)cc1)c1cccc2cnccc12 [H-89]
α1AR/14-3-3 interaction
  inhibition of cirazoline-stimulated α1AR/14-3-3 signals: did not inhibit

## CN1[C@@H]2C[C@@H](OC(=O)[C@H](CO)c3ccccc3)C[C@H]1[C@@H]1O[C@@H]12 [scopolamine]
[1]
  inhibition of agonist-induced CHRM5-mediated 14-3-3 signals: antagonist concentration-dependent inhibition signals

## c1ccc(C2CC2)c(OCC2=NCCN2)c1 [cirazoline]
[2]; HEK293 stably co-expressing α1A-TEV/14-3-3ε-pLuc, Figure 2a, read-out: EC50, α1AR-mediated 14-3-3 signaling
  EC50: 0.0095 µM
[2]; [7]
  EC50: 0.00172 µM
[3]
  EC50: 0.0184 µM
[4]
  ADRB3/14-3-3 interaction signals: very weak signals even at 10 μM

## COc1ccc(OC)c(C(O)C(C)N)c1 (stereo not shown) [methoxamine]
[2]; [7]
  EC50: 0.0111 µM
[3]
  EC50: 0.318 µM

## O=C1CCCN1CC#CCN1CCCC1 [Oxotremorine, oxotremorine]
[5]
  agonist behaviour for 14-3-3 signaling (full/partial): full agonists

## CCNC(=O)[C@H]1O[C@@H](n2cnc3c(N)ncnc32)[C@H](O)[C@@H]1O [NECA, 5'-N-ethylcarboxamidoadenosine]
[6]
  Raf-1/14-3-3 interaction signals on stimulation with GPCR agonist: concentration-dependent Raf-1/14-3-3 interaction signals

## O=C1Nc2ccc(I)cc2/C1=C/c1cc(Br)c(O)c(Br)c1 [GW5074]
Raf-1/14-3-3 interaction
  inhibition of FBS-stimulated Raf-1/14-3-3 interaction signals: very weak inhibition activity

## CNC[C@H](O)c1ccc(O)c(O)c1 [adrenaline]
[6]
  Raf-1/14-3-3 interaction signals on stimulation with GPCR agonist: concentration-dependent Raf-1/14-3-3 interaction signals

## Brc1c(NC2=NCCN2)ccc2nccnc12 [UK14304]
[2]; [7]
  EC50: 0.0552 µM
[3]
  EC50: 0.78 µM

## CC(C)NCC(O)c1ccc(O)c(O)c1 (stereo not shown) [isoproterenol]
[3]
  agonist behaviour in β-arrestin signaling versus 14-3-3 signaling: much weaker agonists of β-arrestin signaling than of 14-3-3 signaling
[4]
  ADRB3/14-3-3 interaction signals: promoted ADRB3/14-3-3 interaction signals in a concentration-dependent manner

## N=C(N)NC(=O)Cc1c(Cl)cccc1Cl [guanfacine]
[2]; [7]
  EC50: 0.0124 µM
[3]
  EC50: 1.61 µM
[4]
  ADRB3/14-3-3 interaction signals: very weak signals even at 10 μM

## C[C@H](Cc1ccc(OCC(=O)O)cc1)NC[C@H](O)c1cccc(Cl)c1 [BRL37344]
[3]
  agonist behaviour in β-arrestin signaling versus 14-3-3 signaling: much weaker agonists of β-arrestin signaling than of 14-3-3 signaling

## Cn1c(CNc2cccc(C(=O)NCc3ccccc3C(F)(F)F)c2)nnc1-c1ccncc1 [CMPD101]
α1AR/14-3-3 interaction
  inhibition of cirazoline-stimulated α1AR/14-3-3 signals: did not inhibit

## NCCc1ccc(O)c(O)c1 [dopamine]
[6]
  Raf-1/14-3-3 interaction signals on stimulation with GPCR agonist: concentration-dependent Raf-1/14-3-3 interaction signals

## CCCS(=O)(=O)Nc1ccc(F)c(C(=O)c2c[nH]c3ncc(-c4ccc(Cl)cc4)cc23)c1F [vemurafenib]
Raf-1/14-3-3 interaction
  inhibition of FBS-stimulated Raf-1/14-3-3 interaction signals: partial inhibition

## C[N+](C)(C)CCOC(N)=O [carbachol]
[5]
  agonist behaviour for 14-3-3 signaling (full/partial): full agonists

## CN1[C@@H]2CC[C@H]1C[C@@H](OC(=O)C(CO)c1ccccc1)C2 (stereo partly shown) [atropine]
[1]
  inhibition of agonist-induced CHRM5-mediated 14-3-3 signals: antagonist concentration-dependent inhibition signals
